The text below walks through data of patent US9453005B2, “Inhibition of influenza M2 proton channel” (The Trustees Of The University Of Pennsylvania, priority 2008, dated 2016).

Like-named read-outs stand apart in the source and are kept apart here. Some results are limits rather than exact numbers.

For this test, the target named is AM2 (Influenza A virus, UniProt P0DOF5). Description: biochemical. Type of test: biochemical. The conditions noted are these: for % Activity: AM2; for change of potency on replacing or installing the head group: compared with the parent compound (BL-1743; 12 for 13).
Sequence of AM2 (P0DOF5 whole entry): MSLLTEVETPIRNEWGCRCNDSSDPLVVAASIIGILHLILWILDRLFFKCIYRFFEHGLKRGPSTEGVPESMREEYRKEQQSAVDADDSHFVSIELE

For the compound `CC1(C)CCNCC1.Cl` [Compound 22, 4,4-Dimethyl-piperidine hydrochloride], the “% Activity” value was 22 (55%). `CN1CCC2(CCCCC2)CC1.Cl` [Compound 3, 3-methyl-3-azoniaspiro[5.5]undecane chloride]: the “% Activity” value is given as 7%. The IC50 (as a rule, the concentration that inhibits the measured activity by half) (Table 1, read-out: IC50) is 20.6 µM. In turn, `C1CCC2CN(C3=NCCN3)CCC2C1` (mixture of isomers) [Compound 15, 2-(octahydroisoquinolin-2(1H)-yl)-4,5-dihydro-1H-imidazol-1-ium iodide] showed an IC50 of 29.5 µM.

`NC(=O)N1CCC2(CCCCC2)CC1` [Compound 4, 3-Aza-spiro[5.5]undecane-3-carboxylic acid amide]: the “% Activity” value amounted to 30% and the “change of potency on replacing or installing the head group” value (shortened to “change of potency”) is on record as “no improvement of potency”.

In the case of `S=C1CCCC(=S)C12CCNCC2` [Compound 11, 3-Aza-spiro[5.5]undecane-7,11-dithione], the “% Activity” value came out at 12%. For the same compound, the IC50 (SAR of BL-1743, read-out: IC50) came to 37.6 µM. As to `C1CCC2(C1)CCN(C1=NCCN1)CC2` [Compound 13, 8-(4,5-Dihydro-1H-imidazol-2-yl)-8-aza-spiro[4.5]decane], the “change of potency” value is “detrimental to the activity”.

For `OC(c1cnc[nH]1)N1CCC2(CCCCC2)CC1` (stereo not drawn) [Compound 19, (3-Aza-spiro[5.5]undec-3-yl)-(3H-imidazol-4-yl)-methanol], the “% Activity” value turned out to be 30%. Take `C1CCC2(CC1)CCNC2.Cl` [Compound 23, 2-Aza-spiro[4.5]decane hydrochloride]: the “% Activity” value is 23 (6%).

Consider `NS(=O)(=O)N1CCC2(CCCCC2)CC1` [Compound 6, 3-Aza-spiro[5,5]undecane-3-sulfonic acid amide], for which the “% Activity” value is on record as 6 (14%) and the “change of potency” value is “Increases of potency”. The IC50 (Table 1, read-out: IC50) turned out to be 15.3 µM.

On to `NC1CCC2(CCCCC2)CC1` [Compound 8, Spiro[5.5]undec-3-ylamine], for which the “% Activity” value is recorded as 11%. Regarding `NC(=S)N1CCC2(CCCCC2)CC1` [Compound 5, 3-Aza-spiro[5,5]undecane-3-carbothioic acid amide], the “% Activity” value is reported as 60% and the “change of potency” value is “no improvement of potency”. For `NC1CC2CC1C1CCCC21` (stereo not drawn) [Compound 16, tricyclo[5.2.1.0 2,6]dec-8-ylaminium chloride], the IC50 turned out to be 15.3 µM. With `N=C(N)N1CCC2(CCCCC2)CC1` [Compound 7, 3-Aza-spiro[5,5]undecane-3-carboxamidine], the “% Activity” value was determined as 13% and the “change of potency” value is given as “Increases of potency”. For the same compound, the IC50 (Table 1, read-out: IC50) was 22.8 µM. `CNC1CC2CC1C1CCCC21` (stereo not drawn) [Compound 17, N-methyl-N-tricyclo[5.2.1.0 2,6]dec-8-ylaminium chloride] came in with an IC50 of 13.6 µM. Regarding `C1CCC2(C1)CCNCC2` [Compound 12, 8-Aza-spiro[4.5]decane], the “% Activity” value was 12 (16.2%). The IC50 (Table 1, read-out: IC50) is 8.14 µM.

In the case of `O=C1CCCC(=O)C12CCNCC2` [Compound 10, 3-Aza-spiro[5.5]undecane-7,11-dione], the “% Activity” value was found to be 100%. For the same compound, the IC50 (SAR of BL-1743, read-out: IC50) is more than 100 µM. For the same compound, the “activity at 100 μM” value (at 100 μM tested) is “no activity”.
